Test results taken from US5672715A, “Herbicidal substituted 3-aryl-pyrazoles” (Monsanto Company, priority 1995, dated 1997).

Assays:
Format in all cases: in vivo
Green Foxtail [1] = experiment: pre-emergence herbicide test; conditions: Setaria viridis, pre-emergence; 0.25 lb/A; read-out: % plant inhibition
How it was run: (§1)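 Steps: compact topsoil in pan; place seeds; level-fill with cover soil; add a known amount of compound before or after covering; keep pans in greenhouse, bottom-watering as needed; rate % inhibition at about 14 days.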

Blackgrass [2] = experiment: pre-emergence herbicide test; conditions: Alopecurus myosuroides, pre-emergence, 0.25 lb/A; read-out: % plant inhibition
How it was run: as §1

Giant Foxtail [3] = experiment: pre-emergence herbicide test; conditions: Setaria faberi, pre-emergence, 0.25 lb/A; read-out: % plant inhibition
How it was run: as §1

Velvetleaf [4] = experiment: pre-emergence herbicide test; conditions: Abutilon theophrasti, pre-emergence, 0.25 lb/A; read-out: % plant inhibition
How it was run: as §1

Soybean [5] = experiment: pre-emergence herbicide test; conditions: Glycine max, pre-emergence, 0.25 lb/A; read-out: % plant inhibition
How it was run: as §1

Rape [6] = experiment: pre-emergence herbicide test; conditions: pre-emergence, 0.25 lb/A; read-out: % plant inhibition
How it was run: as §1

Cocklebur [7] = experiment: pre-emergence herbicide test; conditions: Xanthium strumarium, pre-emergence, 0.25 lb/A; read-out: % plant inhibition
How it was run: as §1

Wheat [8] = experiment: pre-emergence herbicide test; conditions: Triticum aestivum, pre-emergence, 0.25 lb/A; read-out: % plant inhibition
How it was run: as §1

Seedling Johnsongrass [9] = experiment: pre-emergence herbicide test; conditions: Sorghum halepense, pre-emergence, 0.25 lb/A; read-out: % plant inhibition
How it was run: as §1

Bedstraw Catchweed [10] = experiment: pre-emergence herbicide test; conditions: Galium aparine, pre-emergence, 0.25 lb/A; read-out: % plant inhibition
How it was run: as §1

Morning Glory [11] = experiment: pre-emergence herbicide test; conditions: Ipomoea, pre-emergence, 0.25 lb/A; read-out: % plant inhibition
How it was run: as §1

Corn [12] = experiment: pre-emergence herbicide test; conditions: Zea mays, pre-emergence, 0.25 lb/A; read-out: % plant inhibition
How it was run: as §1

Birdseye Speedwell [13] = experiment: pre-emergence herbicide test; conditions: pre-emergence, 0.25 lb/A; read-out: % plant inhibition
How it was run: as §1

Downy Brome [14] = experiment: pre-emergence herbicide test; conditions: Bromus tectorum, pre-emergence, 0.25 lb/A; read-out: % plant inhibition
How it was run: as §1

Barnyardgrass [15] = experiment: pre-emergence herbicide test; conditions: Echinochloa crus-galli, pre-emergence, 0.25 lb/A; read-out: % plant inhibition
How it was run: as §1

Wild Oats [16] = experiment: pre-emergence herbicide test; conditions: Avena fatua, pre-emergence, 0.25 lb/A; read-out: % plant inhibition
How it was run: as §1

Common Chickweed [17] = experiment: pre-emergence herbicide test; conditions: pre-emergence, 0.25 lb/A; read-out: % plant inhibition
How it was run: as §1

Green Foxtail [18] = experiment: post-emergence herbicide test; conditions: Setaria viridis, post-emergence, 0.25 lb/A; read-out: % plant inhibition
How it was run: (§2)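 Plants were raised from seed in topsoil pans in the greenhouse and treated post-emergence at two to three weeks of age. Candidate chemical was applied in spray solution or suspension containing about 0.4% emulsifier at 1870 L/Ha. Activity recorded as percent inhibition.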

Blackgrass [19] = experiment: post-emergence herbicide test; conditions: Alopecurus myosuroides, post-emergence, 0.25 lb/A; read-out: % plant inhibition
How it was run: as §2

Giant Foxtail [20] = experiment: post-emergence herbicide test; conditions: Setaria faberi, post-emergence, 0.25 lb/A; read-out: % plant inhibition
How it was run: as §2

Velvetleaf [21] = experiment: post-emergence herbicide test; conditions: Abutilon theophrasti, post-emergence, 0.25 lb/A; read-out: % plant inhibition
How it was run: as §2

Soybean [22] = experiment: post-emergence herbicide test; conditions: Glycine max, post-emergence, 0.25 lb/A; read-out: % plant inhibition
How it was run: as §2

Rape [23] = experiment: post-emergence herbicide test; conditions: post-emergence, 0.25 lb/A; read-out: % plant inhibition
How it was run: as §2

Cocklebur [24] = experiment: post-emergence herbicide test; conditions: Xanthium strumarium, post-emergence, 0.25 lb/A; read-out: % plant inhibition
How it was run: as §2

Wheat [25] = experiment: post-emergence herbicide test; conditions: Triticum aestivum, post-emergence, 0.25 lb/A; read-out: % plant inhibition
How it was run: as §2

Seedling Johnsongrass [26] = experiment: post-emergence herbicide test; conditions: Sorghum halepense, post-emergence, 0.25 lb/A; read-out: % plant inhibition
How it was run: as §2

Bedstraw Catchweed [27] = experiment: post-emergence herbicide test; conditions: Galium aparine, post-emergence, 0.25 lb/A; read-out: % plant inhibition
How it was run: as §2

Morning Glory [28] = experiment: post-emergence herbicide test; conditions: Ipomoea, post-emergence, 0.25 lb/A; read-out: % plant inhibition
How it was run: as §2

Corn [29] = experiment: post-emergence herbicide test; conditions: Zea mays, post-emergence, 0.25 lb/A; read-out: % plant inhibition
How it was run: as §2

Birdseye Speedwell [30] = experiment: post-emergence herbicide test; conditions: post-emergence, 0.25 lb/A; read-out: % plant inhibition
How it was run: as §2

Downy Brome [31] = experiment: post-emergence herbicide test; conditions: Bromus tectorum, post-emergence, 0.25 lb/A; read-out: % plant inhibition
How it was run: as §2

Barnyardgrass [32] = experiment: post-emergence herbicide test; conditions: Echinochloa crus-galli, post-emergence, 0.25 lb/A; read-out: % plant inhibition
How it was run: as §2

Wild Oats [33] = experiment: post-emergence herbicide test; conditions: Avena fatua, post-emergence, 0.25 lb/A; read-out: % plant inhibition
How it was run: as §2

Common Chickweed [34] = experiment: post-emergence herbicide test; conditions: post-emergence, 0.25 lb/A; read-out: % plant inhibition
How it was run: as §2

`CCC(C)OC(=O)c1cc(-c2nn(C)c(C(F)(F)F)c2C)c(F)cc1Cl` (stereo not shown) [Compound 58] gave an inhibition at 280.212 g/ha (Green Foxtail [1]) of 100%, an inhibition at 280.212 g/ha (Blackgrass [2]) of 95% and an inhibition at 280.212 g/ha (Giant Foxtail [3]) of 100%. For the same compound, the inhibition at 280.212 g/ha (Velvetleaf [4]) was 100%, the inhibition at 280.212 g/ha (Soybean [5]) was 25% and the inhibition at 280.212 g/ha (Rape [6]) was 50%. It also gave an inhibition at 280.212 g/ha (Cocklebur [7]) of 75%, an inhibition at 280.212 g/ha (Wheat [8]) of 5% and an inhibition at 280.212 g/ha (Seedling Johnsongrass [9]) of 100%. It also gave an inhibition at 280.212 g/ha (Bedstraw Catchweed [10]) of 95%, an inhibition at 280.212 g/ha (Morning Glory [11]) of 100% and an inhibition at 280.212 g/ha (Corn [12]) of 20%. The inhibition at 280.212 g/ha (Birdseye Speedwell [13]) was 100%, the inhibition at 280.212 g/ha (Downy Brome [14]) was 100% and the inhibition at 280.212 g/ha (Barnyardgrass [15]) was 100%. The inhibition at 280.212 g/ha (Wild Oats [16]) was 75%, the inhibition at 280.212 g/ha (Common Chickweed [17]) was 100% and the inhibition at 280.212 g/ha (Green Foxtail [18]) was 85%. The inhibition at 280.212 g/ha (Blackgrass [19]) was 80%, the inhibition at 280.212 g/ha (Giant Foxtail [20]) was 95% and the inhibition at 280.212 g/ha (Velvetleaf [21]) was 100%. The inhibition at 280.212 g/ha (Soybean [22]) was 85%, the inhibition at 280.212 g/ha (Rape [23]) was 65% and the inhibition at 280.212 g/ha (Cocklebur [24]) was 99%. The inhibition at 280.212 g/ha (Wheat [25]) was 18%, the inhibition at 280.212 g/ha (Seedling Johnsongrass [26]) was 95% and the inhibition at 280.212 g/ha (Bedstraw Catchweed [27]) was 90%. It also gave an inhibition at 280.212 g/ha (Morning Glory [28]) of 100%, an inhibition at 280.212 g/ha (Corn [29]) of 20% and an inhibition at 280.212 g/ha (Birdseye Speedwell [30]) of 100%. For the same compound, the inhibition at 280.212 g/ha (Downy Brome [31]) was 85%, the inhibition at 280.212 g/ha (Barnyardgrass [32]) was 85% and the inhibition at 280.212 g/ha (Wild Oats [33]) was 85%. It also gave an inhibition at 280.212 g/ha (Common Chickweed [34]) of 95%.
